Data as given in patent US6391917B1, “Dialkyl ureas as calcitonin mimetics” (ZymoGenetics, Inc., priority 1998, dated 2002).

Target: T1, Human calcitonin receptor (Homo sapiens, UniProt P30988)
T1 construct: expressed in transfected cells; host or cells: BHK-570 (Hollex-1)
T1 sequence (P30988 25-474): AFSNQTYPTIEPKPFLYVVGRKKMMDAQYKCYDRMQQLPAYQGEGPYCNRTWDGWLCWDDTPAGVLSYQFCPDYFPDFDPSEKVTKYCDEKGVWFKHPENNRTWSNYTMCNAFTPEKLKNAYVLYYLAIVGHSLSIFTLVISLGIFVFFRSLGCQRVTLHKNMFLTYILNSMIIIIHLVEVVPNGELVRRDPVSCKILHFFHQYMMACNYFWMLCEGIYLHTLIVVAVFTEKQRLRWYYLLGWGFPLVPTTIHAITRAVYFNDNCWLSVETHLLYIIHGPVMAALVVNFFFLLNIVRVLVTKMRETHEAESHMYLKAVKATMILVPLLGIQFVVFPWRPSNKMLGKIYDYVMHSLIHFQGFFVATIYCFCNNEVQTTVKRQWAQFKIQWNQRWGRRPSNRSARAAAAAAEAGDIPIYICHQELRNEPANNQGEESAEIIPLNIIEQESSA
Experiment: CRE-luciferase assay for calcitonin mimetics (Hollex-1)
Assay type: cell-based
Experimental: CRE-Luciferase Assay Method for Calcitonin Mimetics
Human calcitonin receptor-positive and receptor-negative BHK-570 (Baby Hamster Kidney) cell lines were maintained by serial passage in growth medium (DMEM supplemented with 10% heat-inactivated fetal calf serum (HI-FCS), 2 mM L-glutamine, 1 mM sodium pyruvate, 250 nM MTX, and 1 mg/mL G418). On the day prior to assay, cells were trypsinized, adjusted to 2.5×10^5 cells/ml in growth medium, plated in opaque white Dynatech Microlite microtiter tissue culture plates at 50 μL/well, and grown overnight to confluence (37° C., 5% CO2 atmosphere).
Test substances were prepared in DMSO or 10% DMF at 100 times the final desired assay concentration. […] Controls were included on each plate: untreated wells (basal), […], and 100 nM human calcitonin. DMSO or DMF was included in control wells at a concentration equal to that in test samples (not to exceed a final assay concentration of 2% DMSO or 0.5% DMF, with a preferred maximum of 1% DMSO or 0.1% DMF).
Plates were incubated for 3 to 8 hours (4 hours preferred) at 37° C. in an atmosphere of 5% CO2. Following induction, luciferase activity was measured using a Promega luciferase assay kit (E1500) according to the assay kit protocol (Promega Corp., Madison, Wis.). Briefly, assay medium was removed and cells were washed once with phosphate buffered saline (PBS). After the wash, 25 μl of lysis buffer was added to each well, and the plates were incubated for 15 minutes at room temperature. Fifty microliters of Luciferase Assay Substrate (Promega, Corp.) was added to each well and the plates were transferred to a Labsystems Lumiscan microtiter luminometer (Labsystems Inc., Morton Grove, Ill.). The amount of luminescence (relative light units, RLU) was determined following a 0.1 second/well integration of signal. Basal (uninduced) luciferase signal was subtracted from all measurements, and the luciferase signal induced by test samples was expressed as a percentage of the signal in the calcitonin and forskolin controls. Specificity of the luciferase induction for calcitonin receptor-positive cell lines was determined by comparing the percent control values in the calcitonin receptor-positive line (Hollex-1) to those observed in the calcitonin receptor-negative cell line (KZ10-20-48/Zem 228) and the PTH receptor-positive cell line (KZ10-20-48/PTH-20) described below. Samples inducing a signal over the basal level were selected for further characterization, see Table 1 for examples.

Row | Compound | Luciferase induction (% of maximum luciferase induction produced by CT, 100 nM) (crude compound 3.125 μg/ml) | Luciferase induction (% of maximum luciferase induction produced by CT, 100 nM) (crude compound 6.25 μg/ml) | Luciferase induction (% of maximum luciferase induction produced by CT, 100 nM) (crude compound 12.5 μg/ml) | Luciferase induction (% of maximum luciferase induction produced by CT, 100 nM) (crude compound 25 μg/ml) | Luciferase induction (% of maximum luciferase induction produced by CT, 100 nM) (crude compound 50 μg/ml)
1 | CCNC(=O)C(Cc1ccc(OCC)cc1)NC(=O)Nc1cc(C(C)(C)C)ccc1C(C)(C)C (centres unmarked) [628-007] | 0.76% | 10.61% | 31.97% | 55.34% | 31.73%
2 | CCNC(=O)C(Cc1cn(CC)c2ccccc12)NC(=O)Nc1cc(C(C)(C)C)ccc1C(C)(C)C (centres unmarked) [628-008] | −1.31% | 2.91% | 20.07% | 50.93% | 50.39%
3 | C=CCNC(=O)[C@@H](Cc1ccccc1)NC(=O)Nc1cc(C(C)(C)C)ccc1C(C)(C)C [628-013] | 3.51% | 17.98% | 51.62% | 69.62% | 64.26%
4 | C=CCNC(=O)C(Cc1ccc(OCC=C)cc1)NC(=O)Nc1cc(C(C)(C)C)ccc1C(C)(C)C (centres unmarked) [628-015] | 1.62% | 14.69% | 43.2% | 72.17% | 71.49%
5 | C=CCNC(=O)C(Cc1cn(CC=C)c2ccccc12)NC(=O)Nc1cc(C(C)(C)C)ccc1C(C)(C)C (centres unmarked) [628-016] | 10.72% | 43.89% | 76.44% | 80.63% | 75.76%
6 | CCNC(=O)[C@@H](Cc1ccc(Cl)cc1)NC(=O)Nc1cc(C(C)(C)C)ccc1C(C)(C)C [628-022] | 2.08% | 3.26% | 17.85% | 41.52% | 46.98%
7 | CCNC(=O)[C@@H](Cc1ccc(F)cc1)NC(=O)Nc1cc(C(C)(C)C)ccc1C(C)(C)C [628-023] | −0.46% | 7.84% | 32.04% | 46.84% | 41.79%
8 | CCNC(=O)[C@@H](Cc1ccc(I)cc1)NC(=O)Nc1cc(C(C)(C)C)ccc1C(C)(C)C [628-024] | −1.24% | 1.39% | 11.8% | 22.64% | 30.25%
9 | CCNC(=O)[C@@H](Cc1ccc2ccccc2c1)NC(=O)Nc1cc(C(C)(C)C)ccc1C(C)(C)C [628-025] | 0.42% | 0.65% | 2.33% | 7.96% | 22.61%
10 | C=CCNC(=O)[C@@H](Cc1ccc(Cl)cc1)NC(=O)Nc1cc(C(C)(C)C)ccc1C(C)(C)C [628-032] | – | 25.42% | 27.28% | 31.34% | 33.94%
11 | C=CCNC(=O)[C@@H](Cc1ccc(I)cc1)NC(=O)Nc1cc(C(C)(C)C)ccc1C(C)(C)C [628-034] | – | 6.89% | 25.02% | 33.86% | 38.68%
12 | C=CCNC(=O)[C@H](NC(=O)Nc1cc(C(C)(C)C)ccc1C(C)(C)C)c1ccccc1 [628-036] | – | 4.12% | 6.43% | 8.0% | 10.38%
13 | CC(C)(C)c1ccc(C(C)(C)C)c(NC(=O)N[C@H](Cc2ccc(Cl)cc2)C(=O)NCc2ccccc2)c1 [628-042] | 19.16% | 49.17% | 59.74% | 68.69% | 60.41%
14 | CC(C)(C)c1ccc(C(C)(C)C)c(NC(=O)N[C@H](Cc2ccc(F)cc2)C(=O)NCc2ccccc2)c1 [628-043] | 6.48% | 34.53% | 42.06% | 46.24% | 47.95%
15 | CC(C)(C)c1ccc(C(C)(C)C)c(NC(=O)N[C@H](Cc2ccc(I)cc2)C(=O)NCc2ccccc2)c1 [628-044] | 10.65% | 24.08% | 29.35% | 26.23% | 30.14%
16 | CC(C)(C)c1ccc(C(C)(C)C)c(NC(=O)N[C@H](Cc2ccc3ccccc3c2)C(=O)NCc2ccccc2)c1 [628-045] | 20.19% | 38.73% | 42.49% | 44.51% | 40.62%
17 | CC(C)(C)c1ccc(C(C)(C)C)c(NC(=O)N[C@H](Cc2ccc(Cl)cc2)C(=O)NCc2ccc3ccccc3c2)c1 [628-052] | 9.57% | 23.59% | 36.63% | 40.21% | 38.27%
18 | CC(C)(C)c1ccc(C(C)(C)C)c(NC(=O)N[C@H](Cc2ccc(F)cc2)C(=O)NCc2ccc3ccccc3c2)c1 [628-053] | 3.29% | 11.89% | 32.31% | 41.8% | 40.14%
19 | CC(C)(C)c1ccc(C(C)(C)C)c(NC(=O)N[C@H](Cc2ccc(I)cc2)C(=O)NCc2ccc3ccccc3c2)c1 [628-054] | 10.73% | 27.05% | 42.54% | 47.47% | 54.86%
